Several values for one entry are separate records, joined by “and”; a condition that tells them apart may be missing. Identical values can stand only once. Like-named read-outs stand apart in the source and are kept apart here.
Assays:
[1] = tested on: rat isolated and perfused pancreas; test: Insulin secretion from isolated perfused rat pancreas (8.3 mmol/L glucose)
Protocol: (§1) The effects of the compounds on insulin secretion and vascular resistance in the rat isolated and perfused pancreas were evaluated in the presence of a slightly stimulating glucose concentration (8.3 mmol/L).
(§2) Experiments were performed in vitro in isolated perfused pancreas from male Wistar albino rats fed ad libitum and weighing 300-350 g. The pancreas was completely isolated according to a technique previously described (Loubatières et al., Diabetologia, 1969, 5, 1-10) and perfused through its own arterial system with a Krebs-Ringer bicarbonate buffer containing 8.3 mmol/L glucose and 2 g/L bovine serum albumin. A mixture of O2 (95%) and CO2 (5%) was bubbled through this medium at atmospheric pressure. The pH of the solution was 7.35. The preparation was maintained at 37.5° C. Each organ was perfused at a constant pressure (40-50 cm water) selected so as to produce a flow rate of 2.5 ml/min at the start of the experiment; in these conditions, any change in the flow rate reflects a change in vascular resistance (Hillaire-Buys et al., Eur. J. Pharmacol., 1991, 199, 309-314). A 30 min adaptation period was allowed before the first sample was taken for insulin assay. A sample was taken 15 min later, at time 45 min. Then, an infusion of ATP analogues was performed during 30 min. The pancreatic flow rate was recorded and insulin was measured in the effluent fractions.
Insulin was assayed by the radioimmunological method of Herbert et al. (J. Clin. Endocrinol. Metab., 1965, 25, 1375-1384) using a purified rat insulin as standard (Linco Research, St. Charles, Mo., USA) and anti-insulin serum (ICN Biochemicals, Miles, Puteaux, France). The assay sensitivity was 0.1 ng/ml. Insulin output from perfused pancreas is expressed as ng/min and was determined by multiplying the hormone concentration in the effluent fraction by the flow rate.
(§3) Results are expressed as means±standard error of the mean (SEM). For the kinetics of insulin secretion and vascular flow rate, the results are expressed as changes in relation to the value at time 45 min taken as 100%. For the determination of the concentration-response relationship, the mean insulin output rate was calculated as follows: the area under the curve for the drug infusion period divided by the number of minutes (AUC/30).

[2] = tested on: rat isolated and perfused pancreas; test: Pancreatic flow rate (vascular resistance) in isolated perfused rat pancreas; settings: for change in pancreatic flow rate: baseline 2.5 mL/min at time 45 min = 100%
Protocol: as §1, §2, §3

dog = settings: cited from earlier work
[3] = tested on: isolated and perfused rat pancreas; settings: cited from earlier work
fed rats = settings: cited from earlier work
rat isolated pancreas = test: Glucose-dependence of the insulin response in the isolated rat pancreas; settings: 20 nmol/L during 20 minutes, mean±sem
Protocol: The rat isolated pancreas is perfused in vitro with a physiological medium containing different concentrations of glucose. VK 38A is added during 20 minutes at 20 nmol/L. Insulin response is determined by the area under the concentration-time curve during VK 38A administration and is expressed as mean±sem.

[4] = tested on: Normal (non diabetic) Wistar rats; test: Effect on glycemia in vivo, glucose tolerance test; design: species or system rat; settings: in percent of baseline values, single oral dose 0.2 mg/kg, glucose 2 g/kg i.p., 0-60 min, individual animals 1-4
Protocol: Normal (non diabetic) Wistar rats were treated with a single oral dose of VK 38A (0.2 mg/kg) or placebo (vehicle) administered just before a glucose tolerance test, in a cross-over experimental design with a 7-day wash-out period. Glucose (2 g/kg) was administered by intraperitoneal injection. Blood samples were taken before and 10, 20, 30, 60 minutes after glucose load to measure glycemia. The area under the curve of plasma glucose concentrations (in percent of baseline values) was calculated. Results in four animals are given in Table 2 (baseline glucose concentrations were 1.26±0.02 and 1.26±0.04 g/L in control and treated animals, respectively).

[5] = injected directly to the pancreatico-duodenal artery
[6] = conscious dogs, oral administration

## BP(=O)(OC[C@H]1O[C@@H](n2cnc3c(N)nc(SC)nc32)[C@H](O)[C@@H]1O)OP(=O)(O)OP(=O)(O)O (stereo partly shown) [VK 38B, 2-methylthioadenosine-5′-O-(1-boranotriphosphate)]
[1]
  insulin response compared with VK 38A: less potent than that induced by isomer A
[2]; from the concentration of 15 nmol/L
  transient reduction in pancreatic flow rate (increase in vascular resistance): −27±5%

## CSc1nc(N)c2ncn([C@@H]3O[C@H](COP(=O)(O)OP(=O)(O)OP(=O)(O)O)[C@@H](O)[C@H]3O)c2n1 [2-methylthio-ATP]
dog; [5]
  glycemia: slightly decreased glycemia
  insulin release: stimulated insulin release

## BP(=O)(OC[C@H]1O[C@@H](n2cnc3c(N)nc(Cl)nc32)[C@H](O)[C@@H]1O)OP(=O)(O)OP(=O)(O)O (stereo partly shown) [VK 44A, 2-chloroadenosine-5′-O-(1-boranotriphosphate)]
[1]
  insulin response compared with VK 38A: comparable to that of VK 38A
[2]; 0.015 μmol/L
  change in pancreatic flow rate: +8±3%
[2]; 0.15 μmol/L
  change in pancreatic flow rate: +16±5%
[2]; 1.5 μmol/L
  change in pancreatic flow rate: +12±5%

## BP(=O)(OC[C@H]1O[C@@H](n2cnc3c(N)ncnc32)[C@H](O)[C@@H]1O)OP(=O)(O)OP(=O)(O)O (stereo partly shown) [VK 39A, adenosine-5′-O-(1-boranotriphosphate)]
[1]
  insulin response compared with VK 38A: clearly less potent than that of VK 38 A
[2]; 0.5 μmol/L
  change in pancreatic flow rate: +7±3%
[2]; 5.0 μmol/L
  change in pancreatic flow rate: +10±3%

## CCCCCCSc1nc(N)c2ncn([C@H]3O[C@@H](COP(O)(=S)OP(=O)(O)OP(=O)(O)O)[C@H](O)[C@@H]3O)c2n1 (stereo partly drawn) [2-hexylthio-ATP-α-S]
[3]; insulin secretion
  enhancement of potency relative to ATP: 100 fold
[3]; nM concentration range
  increase in glucose-induced insulin secretion: up to 500%

## Nc1ncnc2c1ncn2[C@@H]1O[C@H](COP(=O)(O)OP(O)(O)=S)[C@@H](O)[C@H]1O [ADP-β-S, Adenosine 5′-O-(2-thio)diphosphate]
dog; [6]
  glycemia: reducing glycemia
  insulinemia: transiently increasing insulinemia
Fed rats
  Insulin response: sustained insulin response
  glycemia: reduction of glycemia

## BP(=O)(OC[C@H]1O[C@@H](n2cnc3c(N)nc(SC)nc32)[C@H](O)[C@@H]1O)OP(=O)(O)OP(=O)(O)O (stereo partly shown) [VK 38A, 2-methylthioadenosine-5′-O-(1-boranotriphosphate)]
[1]
  maximal effect on insulin secretion (AUC for 30 min in % per min): approximately 900%
[1]; 1.5 nmol/L, value at time 45 min taken as 100%
  transient monophasic insulin response: 230%
[1]; 30 min infusion
  concentration range of immediate and concentration-dependent insulin response: 0.0015 to 5.0 µmol/L
[2]; 0.5 μmol/L
  change in pancreatic flow rate: −6±3%
[2]; 1.5 μmol/L
  change in pancreatic flow rate: −10±3%
[2]; 5.0 μmol/L
  change in pancreatic flow rate: −8±6%
[2]; till 150 nmol/L
  vascular effects (pancreatic flow rate): no significant effect
Rat isolated pancreas; glucose 2.8 mmol/L
  Insulin response: 0.97 ± 0.03 ng/min
Rat isolated pancreas; glucose 5.0 mmol/L
  Insulin response: 2.68 ± 0.52 ng/min
Rat isolated pancreas; glucose 8.3 mmol/L
  Insulin response: 33.12 ± 1.75 ng/min
[4]
  AUC (VK38A-treated): area under the curve of plasma glucose concentrations: 158 and 201 and 134 and 176

From US7319093B2, “Antidiabetic 2-substituted-5′-O-(1-Boranotriphosphate) adenosine derivatives” (Bar-Ilan University, priority 2001, dated 2008)
